# Results taken from patent US7156906B2, “Impregnating agent” (Yara International ASA, priority 2001, dated 2007).
# What was measured:
# Coniophora puteana [1] = assay: wood block test, % reduction of dry matter after exposure to fungi (EN 113); settings: 3 months
# Description: Coniophora puteana and […] stillatus, the former is a standard organism in such tests prescribed for use in the European Standard Test EN 113. The tests were carried out in the following way: Small blocks of wood of the prescribed size 5 cm×2.5 cm×1.5 cm were numbered and then dried in an oven at 105° C. for 24 hours, cooled and weighed. That represented the dry weight at start. […] The blocks were impregnated with said solution and control blocks with sterile distilled water under vacuum for 10 minutes and then left in the impregnating solution for 1 hour, whereupon they were completely soaked with the impregnating solution. Subsequent to this impregnation the blocks were placed on filter paper for 30 minutes for drainage. The test blocks were then washed three times with distilled water for 2 minutes and then left in distilled water for 24 hours and finally washed three times with distilled water and then placed on filter paper for drainage. Four blocks were used for each concentration of impregnating solution with 2 blocks in each test flask, so-called Kolle flasks. The duration of the tests was 3 months. The blocks were then removed from the flasks and scraped clean of fungi, whereupon they were dried at 105° C. for 24 hours and weighed and percent reduction in dry weight was calculated.
# Coniophora puteana [2] = assay: growth of the fungi Coniophora puteana at varying concentrations; type: cell-based; settings: FIG. 1
# From the text: (§1) Coniophora puteana and […] stillatus, the former is a standard organism in such tests prescribed for use in the European Standard Test EN 113.
# Dacrymyces stillatus = assay: growth of the fungi Dacrymyces stillatus at varying concentrations; type: cell-based; settings: FIG. 2
# From the text: as §1
smiles,measurement,setting,value
"O=CO.O=C[O-].[K+] [K-diformate, potassium diformate]",concentration necessary to obtain required effect on reduction of dry matter,"Coniophora puteana [1]; with subsequent washing of test blocks, FIG. 4",4.8%
same,concentration giving complete effect on reduction of dry matter,"Coniophora puteana [1]; without subsequent washing of test blocks, FIGS. 3 and 7",1.3–2%
same,concentration at which it acts as an effective fungicide (growth),Coniophora puteana [2],at least 0.13 weight %
same,concentration necessary to achieve complete retardation in growth,Dacrymyces stillatus,at least 0.18 weight %
